Experimental data reported in patent US20060276464A1, “Diarylsulfone sulfonamides and use thereof” (Wyeth, priority 2005, published 2006).
Where two headings read alike, the source gives them in different places.

Molecular target: T1, SFRP-1 (Homo sapiens, UniProt Q8N474)
T1 sequence (Q8N474 32-314): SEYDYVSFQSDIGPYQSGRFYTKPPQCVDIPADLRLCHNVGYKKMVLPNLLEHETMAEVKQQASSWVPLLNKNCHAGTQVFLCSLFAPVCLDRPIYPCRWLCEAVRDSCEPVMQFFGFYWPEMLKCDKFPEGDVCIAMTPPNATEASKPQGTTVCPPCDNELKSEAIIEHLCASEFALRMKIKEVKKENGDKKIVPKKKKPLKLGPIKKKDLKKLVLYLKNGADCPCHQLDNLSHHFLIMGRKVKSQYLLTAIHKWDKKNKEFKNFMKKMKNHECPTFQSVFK
Assay: Cell-based assay for in vitro measurement of SFRP-1/SARP2 antagonist activity (U2OS cells co-transfected with 16x TCF-tk-Luciferase reporter, Wnt and hSFRP-1);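 note: U2OS cells co-transfected with a TCF-tk luciferase reporter, a Wnt vector, hSFRP-1 or empty vector and CMV-βgal, luciferase luminescence read in cell lysates alongside βgal activity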
Details: for fold induction at 15 µM: U2OS

[1] = read-out: Fold Induction with SFRP-1, Conc 15 μM, with SFRP-1, fold induction over SFRP-1 control, single dose
[2] = read-out: Fold Induction without SFRP-1, Conc 15 μM, without SFRP-1, single dose
[3] = Conc 15 μM, with SFRP-1, fold induction over SFRP-1 control, single dose

Row | fold induction at 15 µM [1] | fold induction at 15 µM [2] | Fold Induction with SFRP-1 [3] [fold] | Fold Induction without SFRP-1 (Conc 15 μM, without SFRP-1, single dose) [fold] | SMILES
1 | 1.6 | 1.1 |  |  | Cc1ccc(S(=O)(=O)c2ccccc2)cc1S(=O)(=O)NC[C@@H](C)c1ccccc1 [Example 262, 2-methyl-N-[(2S)-2-phenylpropyl]-5-(phenylsulfonyl)benzenesulfonamide]
2 | 0.8 | 1.1 |  |  | C[C@H](CNS(=O)(=O)c1cccc(S(=O)(=O)c2ccccc2)c1)c1ccccc1 [Example 263, N-[(2S)-2-phenylpropyl]-3-(phenylsulfonyl)benzenesulfonamide]
3 | 1.1 | 0.9 | 1.7 |  | Cc1ccc(S(=O)(=O)c2ccc(C)c(S(=O)(=O)NC[C@@H](C)c3ccccc3)c2)cc1 [Example 264, 2-methyl-5-[(4-methylphenyl)sulfonyl]-N-[(2S)-2-phenylpropyl]benzenesulfonamide]
4 | 1.1 | 1.1 | 1.2 | 1 | Cc1ccc(S(=O)(=O)c2ccc(Cl)cc2)cc1S(=O)(=O)NC[C@@H](C)c1ccccc1 [Example 265, 5-[(4-chlorophenyl)sulfonyl]-2-methyl-N-[(2S)-2-phenylpropyl]benzenesulfonamide]
5 | 2.7 | 1.2 |  |  | CCc1ccc(S(=O)(=O)c2ccccc2)cc1S(=O)(=O)NC1Cc2ccccc2C1 [Example 266, N-2,3-dihydro-1H-inden-2-yl-2-ethyl-5-(phenylsulfonyl)benzenesulfonamide]
6 | 2 | 1.2 |  |  | CCc1ccc(S(=O)(=O)c2ccccc2)cc1S(=O)(=O)N[C@H]1C[C@@H]1c1ccccc1 [Example 267, 2-ethyl-N-[(1S,2R)-2-phenylcyclopropyl]-5-(phenylsulfonyl)benzenesulfonamide]
7 | 3.6 | 1.1 |  |  | CCc1ccc(S(=O)(=O)c2ccccc2)cc1S(=O)(=O)NC[C@H](C)c1ccccc1 [Example 268, 2-ethyl-N-[(2R)-2-phenylpropyl]-5-(phenylsulfonyl)benzenesulfonamide]
8 | 1.4 | 1.2 |  |  | COc1ccc(S(=O)(=O)c2ccccc2)cc1S(=O)(=O)NC1Cc2ccccc2C1 [Example 269, N-2,3-dihydro-1H-inden-2-yl-2-methoxy-5-(phenylsulfonyl)benzenesulfonamide]
9 | 1.5 | 1.2 |  |  | COc1ccc(S(=O)(=O)c2ccccc2)cc1S(=O)(=O)N[C@H]1C[C@@H]1c1ccccc1 [Example 270, 2-methoxy-N-[(1S,2R)-2-phenylcyclopropyl]-5-(phenylsulfonyl)benzenesulfonamide]
10 | 1.7 | 1.2 |  |  | COc1ccc(S(=O)(=O)c2ccccc2)cc1S(=O)(=O)NC[C@H](C)c1ccccc1 [Example 271, 2-methoxy-N-[(2R)-2-phenylpropyl]-5-(phenylsulfonyl)benzenesulfonamide]
11 | 0.9 | 1 |  |  | COc1ccc(CCN(C)S(=O)(=O)c2cc(S(=O)(=O)c3ccccc3)ccc2C)cc1OC [Example 272, N-[2-(3,4-dimethoxyphenyl)ethyl]-N,2-dimethyl-5-(phenylsulfonyl)benzenesulfonamide]
12 | 0.9 | 1 |  |  | C=CCN(CCc1ccc(OC)c(OC)c1)S(=O)(=O)c1cc(S(=O)(=O)c2ccccc2)ccc1C [Example 273, N-allyl-N-[2-(3,4-dimethoxyphenyl)ethyl]-2-methyl-5-(phenylsulfonyl)benzenesulfonamide]
13 | 2 | 1 |  |  | C#CCN(CCc1ccc(OC)c(OC)c1)S(=O)(=O)c1cc(S(=O)(=O)c2ccccc2)ccc1C [Example 274, N-[2-(3,4-dimethoxyphenyl)ethyl]-2-methyl-5-(phenylsulfonyl)-N-prop-2-ynylbenzenesulfonamide]
14 | 0.8 | 0.8 |  |  | Cc1ccc(S(=O)(=O)c2ccc(C)c(S(=O)(=O)N(C)CCc3ccccc3F)c2)cc1 [Example 275, N-[2-(2-fluorophenyl)ethyl]-N,2-dimethyl-5-[(4-methylphenyl)sulfonyl]benzenesulfonamide]
15 | 0.8 | 1 |  |  | C=CCN(CCc1ccccc1F)S(=O)(=O)c1cc(S(=O)(=O)c2ccc(C)cc2)ccc1C [Example 276, N-allyl-N-[2-(2-fluorophenyl)ethyl]-2-methyl-5-[(4-methylphenyl)sulfonyl]benzene sulfonamide]
16 | 1.8 | 1 |  |  | C#CCN(CCc1ccccc1F)S(=O)(=O)c1cc(S(=O)(=O)c2ccc(C)cc2)ccc1C [Example 277, N-[2-(2-fluorophenyl)ethyl]-2-methyl-5-[(4-methylphenyl)sulfonyl]-N-prop-2-ynylbenzenesulfonamide]

Row | fold induction at 15 µM [1] | fold induction at 15 µM [2] | Fold Induction with SFRP-1 [3] [fold] | Fold Induction without SFRP-1 (Conc 15 μM, without SFRP-1, single dose) [fold] | SMILES
17 | 1 | 0.9 |  |  | Cc1ccc(S(=O)(=O)c2ccccc2)cc1S(=O)(=O)N(C)CCc1ccccc1 [Example 278, N,2-dimethyl-N-(2-phenylethyl)-5-(phenylsulfonyl)benzenesulfonamide]
18 | 1.9 | 1 |  |  | Cc1ccc(S(=O)(=O)c2ccccc2)cc1S(=O)(=O)N1CCN(CC(=O)N2CCCC2)CC1 [Example 279, 1-{[2-methyl-5-(phenylsulfonyl)phenyl]sulfonyl}-4-(2-oxo-2-pyrrolidin-1-ylethyl)piperazine]
19 | 2.7 | 1.5 |  |  | CCN(CC)CCN1CCN(S(=O)(=O)c2cc(S(=O)(=O)c3ccccc3)ccc2C)CC1 [Example 280, N,N-diethyl-N-[2-(4-{[2-methyl-5-(phenylsulfonyl)phenyl]sulfonyl}piperazin-1-yl)ethyl]amine]
20 | 2.8 | 1.3 |  |  | Cc1ccc(S(=O)(=O)c2ccccc2)cc1S(=O)(=O)N1CCN(CCN2CCOCC2)CC1 [Example 281, 4-[2-(4-{[2-methyl-5-(phenylsulfonyl)phenyl]sulfonyl}piperazin-1-yl)ethyl]morpholine]
21 | 2.4 | 1.6 |  |  | Cc1ccc(S(=O)(=O)c2ccccc2)cc1S(=O)(=O)N1CCN(CCN2CCCC2)CC1 [Example 282, 1-{[2-methyl-5-(phenylsulfonyl)phenyl]sulfonyl}-4-(2-pyrrolidin-1-ylethyl)piperazine]
22 | 1.8 | 1.3 |  |  | Cc1ccc(S(=O)(=O)c2ccccc2)cc1S(=O)(=O)N1CCN(CCCN2CCOCC2)CC1 [Example 283, 4-[3-(4-{[2-methyl-5-(phenylsulfonyl)phenyl]sulfonyl}piperazin-1-yl)propyl]morpholine]
23 | 1.1 | 1.2 |  |  | CCc1ccc(S(=O)(=O)c2ccccc2)cc1S(=O)(=O)N(C)CCc1ccccc1 [Example 284, 2-ethyl-N-methyl-N-(2-phenylethyl)-5-(phenylsulfonyl)benzenesulfonamide]
24 | 2 | 1.1 |  |  | CCc1ccc(S(=O)(=O)c2ccccc2)cc1S(=O)(=O)N1CCN(CC(=O)N2CCCC2)CC1 [Example 285, 1-{[2-ethyl-5-(phenylsulfonyl)phenyl]sulfonyl}-4-(2-oxo-2-pyrrolidin-1-ylethyl)piperazine]
25 | 2 | 1.3 |  |  | CCc1ccc(S(=O)(=O)c2ccccc2)cc1S(=O)(=O)N1CCN(CCN(CC)CC)CC1 [Example 286, N,N-diethyl-N-[2-(4-{[2-ethyl-5-(phenylsulfonyl)phenyl]sulfonyl}piperazin-1-yl)ethyl]amine]
26 | 2.1 | 1.2 |  |  | CCc1ccc(S(=O)(=O)c2ccccc2)cc1S(=O)(=O)N1CCN(CCN2CCOCC2)CC1 [Example 287, 4-[2-(4-{[2-ethyl-5-(phenylsulfonyl)phenyl]sulfonyl}piperazin-1-yl)ethyl]morpholine]
27 | 3.6 | 1.7 |  |  | CCc1ccc(S(=O)(=O)c2ccccc2)cc1S(=O)(=O)N1CCN(CCN2CCCC2)CC1 [Example 288, 1-{[2-ethyl-5-(phenylsulfonyl)phenyl]sulfonyl}-4-(2-pyrrolidin-1-ylethyl)piperazine]
28 | 2.3 | 1.1 |  |  | CCc1ccc(S(=O)(=O)c2ccccc2)cc1S(=O)(=O)N1CCN(CCCN2CCOCC2)CC1 [Example 289, 4-[3-(4-{[2-ethyl-5-(phenylsulfonyl)phenyl]sulfonyl}piperazin-1-yl)propyl]morpholine]
29 | 1.9 | 0.8 |  |  | Cc1ccc(S(=O)(=O)c2ccc(Cl)cc2)cc1S(=O)(=O)NCCN1CCOCC1 [Example 290, 5-[(4-chlorophenyl)sulfonyl]-2-methyl-N-(2-morpholin-4-ylethyl)benzenesulfonamide]
30 | 1.7 | 0.9 |  |  | Cc1ccc(S(=O)(=O)c2ccc(Cl)cc2)cc1S(=O)(=O)NCCc1ccccn1 [Example 291, 5-[(4-chlorophenyl)sulfonyl]-2-methyl-N-(2-pyridin-2-ylethyl)benzenesulfonamide]
31 | 2.3 | 0.8 |  |  | Cc1ccc(S(=O)(=O)c2ccc(Cl)cc2)cc1S(=O)(=O)NCCCn1ccnc1 [Example 292, 5-[(4-chlorophenyl)sulfonyl]-N-[3-(1H-imidazol-1-yl)propyl]-2-methylbenzenesulfonamide]
